Results from publication PMC4032265 (PLoS ONE, 2014).
Values joined by “and” are separate entries in the source; they are usually repeats but may differ in a detail not shown here. Equal values may be shown once.

What was measured:
α2B adrenergic receptor = biological target: T1, α2B adrenergic receptor (Homo sapiens, UniProt P18089); test: PDSP radioligand binding, α2B; conditions: read-out: % inhibition at 10 µM; single concentration 10 µM
T1 sequence (P18089 1-450): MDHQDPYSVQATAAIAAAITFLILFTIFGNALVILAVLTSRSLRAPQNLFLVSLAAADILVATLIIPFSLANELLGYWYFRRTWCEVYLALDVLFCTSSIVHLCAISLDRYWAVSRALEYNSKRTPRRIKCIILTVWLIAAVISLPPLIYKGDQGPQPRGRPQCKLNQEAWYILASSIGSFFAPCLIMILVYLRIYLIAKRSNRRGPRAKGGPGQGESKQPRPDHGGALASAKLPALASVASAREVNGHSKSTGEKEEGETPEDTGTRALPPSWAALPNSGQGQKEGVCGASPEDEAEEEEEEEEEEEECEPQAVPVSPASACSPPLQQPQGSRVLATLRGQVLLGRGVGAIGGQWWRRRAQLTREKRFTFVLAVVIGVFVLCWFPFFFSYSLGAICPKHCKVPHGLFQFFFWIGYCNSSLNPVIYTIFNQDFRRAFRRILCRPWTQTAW

[1] = biological target: T2, 5HT1A serotonergic receptor (Homo sapiens, UniProt P08908); test: PDSP radioligand binding, 5HT1A; conditions: read-out: % inhibition at 10 µM; single concentration 10 µM
T2 sequence (P08908 1-422): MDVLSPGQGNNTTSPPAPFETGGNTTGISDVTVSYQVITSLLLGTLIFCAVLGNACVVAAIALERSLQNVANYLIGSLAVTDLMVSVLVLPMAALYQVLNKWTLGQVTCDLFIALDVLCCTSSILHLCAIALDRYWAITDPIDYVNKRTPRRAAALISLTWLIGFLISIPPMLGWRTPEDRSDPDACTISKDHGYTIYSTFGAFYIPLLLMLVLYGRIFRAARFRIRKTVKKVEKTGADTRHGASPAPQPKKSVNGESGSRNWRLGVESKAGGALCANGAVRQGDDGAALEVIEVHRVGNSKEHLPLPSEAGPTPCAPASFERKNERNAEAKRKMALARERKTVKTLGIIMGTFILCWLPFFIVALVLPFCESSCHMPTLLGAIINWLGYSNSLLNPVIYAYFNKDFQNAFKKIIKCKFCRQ

[2] = biological target: 5HT2B serotonergic receptor (Homo sapiens, UniProt P41595); test: PDSP radioligand binding, 5HT2B
[3] = biological target: 5HT7 serotonergic receptor (Homo sapiens, UniProt P34969); test: PDSP radioligand binding, 5HT7; conditions: read-out: % inhibition at 10 µM; single concentration 10 µM
σ1 receptor = σ1 receptor (Cavia porcellus, UniProt Q60492); test: PDSP radioligand binding, σ1; conditions: read-out: % inhibition at 10 µM; single concentration 10 µM
[4] = biological target: peripheral benzodiazepine receptor (PBR) (Rattus norvegicus, UniProt P16257); test: PDSP radioligand binding, PBR; conditions: read-out: % inhibition at 10 µM; single concentration 10 µM
α1A adrenergic receptor = biological target: T3, α1A adrenergic receptor (Homo sapiens, UniProt P35348); test: PDSP radioligand binding, α1A; conditions: read-out: % inhibition at 10 µM; single concentration 10 µM
T3 sequence (P35348 1-466): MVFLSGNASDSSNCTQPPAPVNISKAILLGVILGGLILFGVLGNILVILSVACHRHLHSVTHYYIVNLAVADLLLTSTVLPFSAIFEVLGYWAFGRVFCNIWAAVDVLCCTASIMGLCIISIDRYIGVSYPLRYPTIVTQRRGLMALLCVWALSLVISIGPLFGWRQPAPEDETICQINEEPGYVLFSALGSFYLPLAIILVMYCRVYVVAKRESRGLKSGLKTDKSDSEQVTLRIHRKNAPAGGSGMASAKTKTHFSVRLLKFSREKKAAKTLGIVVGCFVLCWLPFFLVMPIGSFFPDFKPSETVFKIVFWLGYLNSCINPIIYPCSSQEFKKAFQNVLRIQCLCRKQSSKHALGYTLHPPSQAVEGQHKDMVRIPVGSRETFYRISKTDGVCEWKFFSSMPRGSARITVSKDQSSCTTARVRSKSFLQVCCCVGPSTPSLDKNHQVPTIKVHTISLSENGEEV

β1 adrenergic receptor = β1 adrenergic receptor (Homo sapiens, UniProt P08588); test: PDSP radioligand binding, β1; conditions: read-out: % inhibition at 10 µM; single concentration 10 µM
[5] = biological target: T4, M1 muscarinic acetylcholine receptor (Homo sapiens, UniProt P11229); test: PDSP radioligand binding, M1; conditions: read-out: % inhibition at 10 µM; single concentration 10 µM
T4 sequence (P11229 1-460): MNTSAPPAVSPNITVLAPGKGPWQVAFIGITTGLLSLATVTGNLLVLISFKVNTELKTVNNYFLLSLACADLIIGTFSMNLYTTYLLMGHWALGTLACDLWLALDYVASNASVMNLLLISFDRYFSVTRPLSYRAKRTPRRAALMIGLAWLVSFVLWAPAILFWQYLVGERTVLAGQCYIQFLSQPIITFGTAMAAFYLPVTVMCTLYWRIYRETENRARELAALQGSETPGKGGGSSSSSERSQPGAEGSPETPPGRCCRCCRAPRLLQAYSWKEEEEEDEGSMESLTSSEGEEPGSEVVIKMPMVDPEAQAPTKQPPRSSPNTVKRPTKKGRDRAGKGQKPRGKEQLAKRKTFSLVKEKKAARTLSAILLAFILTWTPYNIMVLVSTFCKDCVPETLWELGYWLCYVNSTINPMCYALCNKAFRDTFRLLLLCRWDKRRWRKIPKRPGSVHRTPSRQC

[6] = biological target: T5, M2 muscarinic acetylcholine receptor (Homo sapiens, UniProt P08172); test: PDSP radioligand binding, M2; conditions: read-out: % inhibition at 10 µM; single concentration 10 µM
T5 sequence (P08172 1-466): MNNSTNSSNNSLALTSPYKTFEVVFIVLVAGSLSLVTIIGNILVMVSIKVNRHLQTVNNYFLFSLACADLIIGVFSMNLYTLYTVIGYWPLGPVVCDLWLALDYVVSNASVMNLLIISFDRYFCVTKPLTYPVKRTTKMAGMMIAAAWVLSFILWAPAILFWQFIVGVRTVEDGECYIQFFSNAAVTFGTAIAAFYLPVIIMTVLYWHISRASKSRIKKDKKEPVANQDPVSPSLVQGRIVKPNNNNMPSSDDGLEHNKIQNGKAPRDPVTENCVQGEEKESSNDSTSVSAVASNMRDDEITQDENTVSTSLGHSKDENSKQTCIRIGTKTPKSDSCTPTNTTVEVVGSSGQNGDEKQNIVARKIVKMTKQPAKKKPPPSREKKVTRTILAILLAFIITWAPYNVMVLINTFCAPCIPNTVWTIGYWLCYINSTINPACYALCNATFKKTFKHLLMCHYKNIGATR

D5 dopaminergic receptor = D5 dopaminergic receptor (Homo sapiens, UniProt P21918); test: PDSP radioligand binding, D5; conditions: read-out: % inhibition at 10 µM; single concentration 10 µM
[7] = biological target: 5HT2A serotonergic receptor (Homo sapiens, UniProt P28223); test: PDSP radioligand binding, 5HT2A; conditions: read-out: % inhibition at 10 µM
GABAA receptor = test: PDSP radioligand binding, GABAA; conditions: single concentration 10 µM

5HT2B serotonergic receptor, sequence (P41595 whole entry): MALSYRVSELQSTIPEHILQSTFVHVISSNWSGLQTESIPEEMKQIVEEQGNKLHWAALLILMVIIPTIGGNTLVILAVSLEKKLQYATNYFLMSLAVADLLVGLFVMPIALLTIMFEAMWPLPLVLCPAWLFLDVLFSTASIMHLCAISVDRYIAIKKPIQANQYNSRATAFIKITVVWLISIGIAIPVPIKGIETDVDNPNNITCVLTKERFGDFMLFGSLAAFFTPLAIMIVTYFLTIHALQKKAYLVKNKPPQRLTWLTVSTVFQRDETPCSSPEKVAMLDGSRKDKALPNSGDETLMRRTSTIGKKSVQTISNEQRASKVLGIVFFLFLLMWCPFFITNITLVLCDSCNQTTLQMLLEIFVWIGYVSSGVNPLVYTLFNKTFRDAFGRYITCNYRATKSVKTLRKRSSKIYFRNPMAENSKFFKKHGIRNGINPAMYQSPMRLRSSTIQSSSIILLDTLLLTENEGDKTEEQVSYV
5HT7 serotonergic receptor, sequence (P34969 whole entry): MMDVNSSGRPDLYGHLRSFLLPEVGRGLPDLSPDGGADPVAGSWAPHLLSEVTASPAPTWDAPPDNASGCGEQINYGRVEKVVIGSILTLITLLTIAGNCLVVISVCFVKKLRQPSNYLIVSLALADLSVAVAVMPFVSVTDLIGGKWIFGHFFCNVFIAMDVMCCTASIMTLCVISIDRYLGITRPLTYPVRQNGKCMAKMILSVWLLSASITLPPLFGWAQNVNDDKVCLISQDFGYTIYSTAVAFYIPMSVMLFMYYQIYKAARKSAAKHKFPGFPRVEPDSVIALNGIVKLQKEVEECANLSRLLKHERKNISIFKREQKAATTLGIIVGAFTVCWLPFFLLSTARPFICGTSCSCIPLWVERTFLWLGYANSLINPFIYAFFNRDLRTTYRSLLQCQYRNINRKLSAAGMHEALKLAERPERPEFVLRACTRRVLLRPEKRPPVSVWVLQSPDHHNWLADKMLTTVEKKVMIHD
β1 adrenergic receptor, sequence (P08588 whole entry, species assumed): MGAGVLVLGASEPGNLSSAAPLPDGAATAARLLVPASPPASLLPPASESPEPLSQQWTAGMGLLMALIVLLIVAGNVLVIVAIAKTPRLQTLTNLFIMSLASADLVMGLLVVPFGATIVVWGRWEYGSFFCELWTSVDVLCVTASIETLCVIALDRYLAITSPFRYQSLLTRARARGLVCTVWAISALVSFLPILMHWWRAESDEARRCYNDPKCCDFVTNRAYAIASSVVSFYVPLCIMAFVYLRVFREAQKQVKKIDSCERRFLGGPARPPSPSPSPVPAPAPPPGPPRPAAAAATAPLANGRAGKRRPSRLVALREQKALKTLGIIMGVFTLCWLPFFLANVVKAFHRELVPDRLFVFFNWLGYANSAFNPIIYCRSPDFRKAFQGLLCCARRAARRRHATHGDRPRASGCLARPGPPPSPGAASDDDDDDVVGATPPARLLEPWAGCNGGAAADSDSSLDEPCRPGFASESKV
5HT2A serotonergic receptor, sequence (P28223 whole entry): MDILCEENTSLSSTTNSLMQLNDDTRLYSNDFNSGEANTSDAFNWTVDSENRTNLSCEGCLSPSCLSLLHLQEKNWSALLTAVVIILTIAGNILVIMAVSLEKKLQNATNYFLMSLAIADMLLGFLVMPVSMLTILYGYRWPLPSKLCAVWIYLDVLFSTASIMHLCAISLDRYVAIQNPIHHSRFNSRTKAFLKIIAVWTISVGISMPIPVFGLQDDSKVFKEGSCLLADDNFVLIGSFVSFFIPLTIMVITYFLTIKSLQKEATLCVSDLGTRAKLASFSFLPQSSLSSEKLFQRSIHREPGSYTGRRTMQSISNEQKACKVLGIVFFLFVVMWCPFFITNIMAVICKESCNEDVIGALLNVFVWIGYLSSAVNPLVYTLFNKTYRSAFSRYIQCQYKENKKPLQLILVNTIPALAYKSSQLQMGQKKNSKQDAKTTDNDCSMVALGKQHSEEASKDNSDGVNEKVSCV
D5 dopaminergic receptor, sequence (P21918 whole entry): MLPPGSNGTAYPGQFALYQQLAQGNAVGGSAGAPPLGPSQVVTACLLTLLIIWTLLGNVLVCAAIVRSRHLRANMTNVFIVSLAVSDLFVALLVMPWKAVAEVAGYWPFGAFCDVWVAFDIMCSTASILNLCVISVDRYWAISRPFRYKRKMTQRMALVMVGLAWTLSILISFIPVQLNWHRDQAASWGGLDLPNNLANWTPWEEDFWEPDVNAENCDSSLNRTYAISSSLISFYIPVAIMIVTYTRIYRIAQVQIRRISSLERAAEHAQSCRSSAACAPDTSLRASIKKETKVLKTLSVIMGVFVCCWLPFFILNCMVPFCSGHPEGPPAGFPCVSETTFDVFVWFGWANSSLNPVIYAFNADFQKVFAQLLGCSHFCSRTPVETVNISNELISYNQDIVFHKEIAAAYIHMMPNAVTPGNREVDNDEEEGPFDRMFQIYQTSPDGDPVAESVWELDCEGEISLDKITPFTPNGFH
σ1 receptor, sequence (Q60492 whole entry): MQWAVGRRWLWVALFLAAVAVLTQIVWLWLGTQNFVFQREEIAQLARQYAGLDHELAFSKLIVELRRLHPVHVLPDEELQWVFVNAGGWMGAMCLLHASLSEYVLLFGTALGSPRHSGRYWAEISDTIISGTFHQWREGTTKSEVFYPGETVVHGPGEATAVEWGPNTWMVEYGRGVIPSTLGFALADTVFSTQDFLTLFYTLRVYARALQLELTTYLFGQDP

## O[C@@H]1[C@H](O)[C@@H]2C[C@@H]2[C@H]1n1cnc2c(NC(C3CC3)C3CC3)nc(Cl)nc21 [Compound 10]
α2B adrenergic receptor
  inhibition at 10 µM: 15%
[1]
  inhibition at 10 µM: 4%
[2]; full concentration-response curves, n = 3-6 unless noted
  Ki: 640 nM and 641 nM
[2]; read-out: % inhibition at 10 µM
  inhibition at 10 µM: 47%
[3]
  inhibition at 10 µM: 0%
σ1 receptor
  inhibition at 10 µM: 9%
[4]
  inhibition at 10 µM: 0%
α1A adrenergic receptor
  inhibition at 10 µM: 1%
β1 adrenergic receptor
  inhibition at 10 µM: 4%
[5]
  inhibition at 10 µM: 0%
[6]
  inhibition at 10 µM: 15%
D5 dopaminergic receptor
  inhibition at 10 µM: 0%
[7]
  inhibition at 10 µM: 0%
GABAA receptor
  % inhibition at 10 µM: 11%
